Results as given in publication PMC12311136 (Nature Communications, 2025).

How the values were obtained:
Assay type in all cases: binding
[1] = target: T1, ALA1 Loop1 (151–329 aa) (Arabidopsis thaliana, UniProt P98204); experiment: bio-layer interferometry, liposome-loaded APS sensor
T1 sequence (P98204 151-329): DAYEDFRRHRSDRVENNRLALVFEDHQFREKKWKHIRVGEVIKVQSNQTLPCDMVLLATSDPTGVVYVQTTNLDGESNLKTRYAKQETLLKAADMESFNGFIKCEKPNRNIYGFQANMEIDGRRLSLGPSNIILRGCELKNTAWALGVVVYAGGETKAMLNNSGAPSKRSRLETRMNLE

[2] = target: T2, DRP1A (Arabidopsis thaliana, UniProt P42697); experiment: bio-layer interferometry, POPC background subtracted; settings: 3% lipid in POPC liposomes; HEPES pH 7.5, 100 mM NaCl
T2 sequence (P42697 1-610): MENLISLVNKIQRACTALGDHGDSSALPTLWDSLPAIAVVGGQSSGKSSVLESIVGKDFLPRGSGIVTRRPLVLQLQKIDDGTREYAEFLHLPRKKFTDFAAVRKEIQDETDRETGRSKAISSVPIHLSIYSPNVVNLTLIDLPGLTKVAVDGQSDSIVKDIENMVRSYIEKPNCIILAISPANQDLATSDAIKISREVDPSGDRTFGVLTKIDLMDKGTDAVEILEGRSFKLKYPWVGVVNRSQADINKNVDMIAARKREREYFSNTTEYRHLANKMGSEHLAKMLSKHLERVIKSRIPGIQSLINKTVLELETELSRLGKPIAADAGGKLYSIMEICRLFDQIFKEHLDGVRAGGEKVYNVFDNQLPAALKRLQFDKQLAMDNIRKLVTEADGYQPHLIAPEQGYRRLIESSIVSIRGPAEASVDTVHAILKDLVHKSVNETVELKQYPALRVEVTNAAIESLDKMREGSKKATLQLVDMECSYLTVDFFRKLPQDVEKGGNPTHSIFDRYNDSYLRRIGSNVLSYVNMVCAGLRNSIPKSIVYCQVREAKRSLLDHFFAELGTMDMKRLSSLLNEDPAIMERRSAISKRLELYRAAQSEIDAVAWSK

[3] = target: T3, ALA1 Loop2 (410–914 aa) (Arabidopsis thaliana, UniProt P98204); experiment: bio-layer interferometry, liposome-loaded APS sensor
T3 sequence (P98204 410-914): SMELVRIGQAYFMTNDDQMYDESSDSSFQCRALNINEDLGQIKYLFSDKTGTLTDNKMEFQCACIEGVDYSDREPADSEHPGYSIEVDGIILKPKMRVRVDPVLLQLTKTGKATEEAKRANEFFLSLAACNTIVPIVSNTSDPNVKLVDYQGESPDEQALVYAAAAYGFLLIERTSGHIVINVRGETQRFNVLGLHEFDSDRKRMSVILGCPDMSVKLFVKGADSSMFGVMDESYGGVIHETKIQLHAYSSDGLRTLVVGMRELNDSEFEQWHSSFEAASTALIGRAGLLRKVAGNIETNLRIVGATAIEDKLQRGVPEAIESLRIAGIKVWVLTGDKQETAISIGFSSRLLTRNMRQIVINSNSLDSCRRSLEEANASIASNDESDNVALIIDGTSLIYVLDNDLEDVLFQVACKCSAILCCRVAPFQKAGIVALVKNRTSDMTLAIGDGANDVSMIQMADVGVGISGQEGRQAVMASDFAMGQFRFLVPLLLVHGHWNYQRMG

[4] = target: T3, ALA1 Loop2 (410–914 aa); experiment: bio-layer interferometry, POPC background subtracted; settings: 3% lipid in POPC liposomes; HEPES pH 7.5, 100 mM NaCl
[5] = target: T2, DRP1A; experiment: bio-layer interferometry, liposome-loaded APS sensor

Kd [1] | Kd [3] | Kd [5] | SMILES | bio-layer interferometry, POPC background subtracted [2] | bio-layer interferometry, POPC background subtracted [4]
6050 nM | 2210 nM |  | CCCCCCCC/C=C\CCCCCCCC(=O)OC[C@H](COP(=O)(O)O[C@H]1[C@H](O)[C@@H](O)[C@H](OP(=O)(O)O)[C@@H](O)[C@H]1O)OC(=O)CCCCCCC/C=C\CCCCCCCC [PI4P] | followed by weaker binding to PI4P and PS liposomes | 
 |  |  | CCCCCCCC/C=C\CCCCCCCC(=O)OC[C@H](COP(=O)(O)O[C@H]1[C@H](O)[C@@H](OP(=O)(O)O)[C@H](O)[C@@H](O)[C@H]1O)OC(=O)CCCCCCC/C=C\CCCCCCCC [PI5P] |  | highest near-steady-state binding was observed with PS, PI4P and PI5P liposomes
 |  | 1230 nM | CCCCCCCC/C=C\CCCCCCCC(=O)OC[C@H](COP(=O)(O)O[C@@H]1[C@H](O)[C@H](O)[C@@H](OP(=O)(O)O)[C@H](OP(=O)(O)O)[C@H]1O)OC(=O)CCCCCCC/C=C\CCCCCCCC [PI(4,5)P2] |  | 
 |  |  | CCCCCCCC/C=C\CCCCCCCC(=O)OC[C@H](COP(=O)(O)OC[C@H](N)C(=O)O)OC(=O)CCCCCCC/C=C\CCCCCCCC [PS] | followed by weaker binding to PI4P and PS liposomes | highest near-steady-state binding was observed with PS, PI4P and PI5P liposomes
